Data on 68 molecules can be found in ChEMBL document CHEMBL3639166, “Heteroaryloxyheterocyclyl compounds as PDE10 inhibitors” (2013).

In this assay the target is T1, cAMP and cAMP-inhibited cGMP 3',5'-cyclic phosphodiesterase 10A (Rattus norvegicus, UniProt Q9QYJ6).
T1 sequence (Q9QYJ6 whole entry): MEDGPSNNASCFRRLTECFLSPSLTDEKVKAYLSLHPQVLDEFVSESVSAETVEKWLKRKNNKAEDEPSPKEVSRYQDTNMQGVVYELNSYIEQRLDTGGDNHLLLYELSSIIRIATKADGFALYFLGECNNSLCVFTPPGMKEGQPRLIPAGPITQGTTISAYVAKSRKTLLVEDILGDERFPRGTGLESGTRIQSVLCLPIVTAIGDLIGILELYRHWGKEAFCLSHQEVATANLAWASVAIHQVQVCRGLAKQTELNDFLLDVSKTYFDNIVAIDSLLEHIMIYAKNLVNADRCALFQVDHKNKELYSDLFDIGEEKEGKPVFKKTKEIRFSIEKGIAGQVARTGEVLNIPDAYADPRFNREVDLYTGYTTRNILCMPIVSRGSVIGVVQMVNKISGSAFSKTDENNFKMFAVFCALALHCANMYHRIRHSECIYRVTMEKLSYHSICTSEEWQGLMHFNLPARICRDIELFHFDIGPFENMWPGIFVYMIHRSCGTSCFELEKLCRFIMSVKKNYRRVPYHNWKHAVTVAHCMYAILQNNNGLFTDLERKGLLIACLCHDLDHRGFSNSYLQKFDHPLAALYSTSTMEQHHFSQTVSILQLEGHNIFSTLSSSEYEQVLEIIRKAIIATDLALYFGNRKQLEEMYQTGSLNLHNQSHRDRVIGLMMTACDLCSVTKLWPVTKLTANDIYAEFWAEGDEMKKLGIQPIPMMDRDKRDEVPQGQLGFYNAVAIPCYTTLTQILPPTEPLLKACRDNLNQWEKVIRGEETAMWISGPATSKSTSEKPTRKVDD
Description: Enzyme Inhibition Assay: Enzyme activity: An IMAP TR-FRET assay was used to analyze the enzyme activity (Molecular Devices Corp., Sunnyvale, Calif). On the technique in general: Time-resolved FRET reads energy transfer from a long-lived donor to a nearby acceptor.

A word on the IC50: it is the concentration that gives 50% inhibition. Low values mean greater potency, high ones weaker potency.

On to `FC1(F)CCN(c2nccnc2OC2CN(c3ccc4ccccc4n3)C2)C1`, for which the IC50 was 95.3 nM.

As for `O[C@@H]1CCN(c2nccnc2OC2CCN(c3ccc4ccccc4n3)CC2)C1`, half-maximal inhibition (IC50) was put at 356 nM.

Molecule `O=C(c1nc2ccccc2[nH]1)N1CCC(Oc2nccnc2-c2ccncc2)CC1` yielded an IC50 of 230 nM.

Take `O=C(c1cc2ccccc2cn1)N1CCC(Oc2ncccc2C2CCOCC2)CC1`: half-maximal inhibition (IC50) required 126 nM.

With `CC(=O)N1CCC(c2nccnc2OC2CN(c3nc4ccccc4[nH]3)C2)CC1`, the IC50 was 690 nM.

Turning to `CC(C)(C)OC(=O)N1CCC(c2nc3ccccc3nc2OC2CN(c3ccc4ccccc4n3)C2)CC1`, the IC50 was determined as 115 nM.

The molecule `O=C(c1ncc[nH]1)N1CCC(Oc2ncccc2C2CCOCC2)CC1` registered an IC50 of 3670 nM.

Molecule `CC(=O)c1cccc(-c2nccnc2OC2CN(c3ccc4ccccc4n3)C2)c1` had an IC50 of 11.2 nM.

In the case of `CC(=O)N1CCCC(c2cccnc2OC2CN(C(=O)c3cc(C)c[nH]3)C2)C1` (stereo not drawn), the IC50 stood at 7940 nM.

For the molecule `CC(=O)N1CCC(c2nccnc2OC2CCN(c3cccc(C)n3)CC2)CC1`, the IC50 came out at 1050 nM.

`OCC1CCN(c2cncc(OC3CN(c4ccc5ccccc5n4)C3)n2)CC1` had an IC50 of 0.639 nM.

Take `CC(=O)N1CCCC(c2cccnc2OC2CN(C(=O)c3ccccn3)C2)C1` (stereo not drawn): the IC50 was 41 nM.

As for `Cc1cccc2ccc(N3CCC(Oc4nccnc4C4CCOCC4)CC3)nc12`, half-maximal inhibition (IC50) required 7840 nM.

Regarding `CC(=O)N1CC=C(c2nccnc2OC2CCN(C(=O)c3nc4ccccc4[nH]3)CC2)CC1`, the IC50 was determined as 71.8 nM.

For the molecule `O=C(c1nc2ccccc2[nH]1)N1CC[C@H](Oc2ncccc2C2CCOCC2)C1`, the midpoint of inhibition, the IC50, lay at 409 nM.

For `c1ccc2nc(N3CC(Oc4nccnc4C4CCOCC4)C3)ccc2c1`, the IC50 is 331 nM.

With `Cc1ccncc1-c1nccnc1OC1CN(c2ccc3ccccc3n2)C1`, the IC50 was 251 nM.

`OCC1CCCN(c2ncc(Br)c(OC3CN(c4ccc5ccccc5n4)C3)n2)C1` (stereo not drawn) registered an IC50 of 60 nM.

`Nc1ccc(N2CCC(Oc3ncccc3C3CCOCC3)CC2)nc1`: the concentration for half-maximal inhibition (IC50) was 1700 nM.

`OCc1cccc(-c2nccnc2OC2CN(c3ccc4ccccc4n3)C2)c1` returned an IC50 of 23.3 nM.

Take `O=C(c1nc2ccccc2s1)N1CCC(Oc2ncccc2C2CCOCC2)CC1`: half-maximal inhibition (IC50) was put at 324 nM.

For `c1ccc(N2CCC(Oc3nccnc3C3CCOCC3)CC2)nc1`, inhibition was half-maximal at 2390 nM (IC50).

On to `COCC(=O)N1CCC(c2nccnc2OC2CN(c3ccc4ccccc4n3)C2)CC1`, for which inhibition was half-maximal at 165 nM (IC50).

As to `O=C(c1nc2ccccc2[nH]1)N1CC(Oc2cnccn2)C1`, the IC50 came to 12300 nM.

For the molecule `CC(C)C(=O)N1CCCC(c2cccnc2OC2CN(C(=O)c3nc4ccccc4[nH]3)C2)C1` (stereo not drawn), the IC50 is 41.4 nM.

Regarding `Clc1cnccc1-c1nccnc1OC1CN(c2ccc3ccccc3n2)C1`, half-maximal inhibition (IC50) was put at 155 nM.

The molecule `O=C(c1ccc2ccccc2n1)N1CCC(Oc2nccnc2C2CCOCC2)CC1` had an IC50 of 994 nM.

In turn, `OCC1CCCCN1c1ncc(Br)c(OC2CN(c3ccc4ccccc4n3)C2)n1` (stereo not drawn) gave an IC50 of 260 nM.

Molecule `OC[C@H]1CCCN1c1nccnc1OC1CN(c2ccc3ccccc3n2)C1` showed an IC50 of 150 nM.

`O=C(OCc1ccccc1)N1CCC(c2nc3ccccc3nc2OC2CN(c3ccc4ccccc4n3)C2)CC1` yielded an IC50 of 51.1 nM.

With `c1cnc(OC2CN(c3ccc4ccccc4n3)C2)c(C2CCOCC2)c1`, the IC50 came out at 1800 nM.

For the molecule `CC(=O)N1CCN(c2nccnc2OC2CN(c3ccc4ccccc4n3)C2)CC1`, the IC50 was determined as 77.5 nM.

Consider `O=C(c1ccncn1)N1CC(Oc2ncccc2C2=CCOCC2)C1`, for which the IC50 is 990 nM.

`CC(=O)N1CCC(c2cccnc2OC2CCN(c3ccc(Cl)cn3)CC2)CC1`: half-maximal inhibition (IC50) was put at 1200 nM.

On to `Cc1ccc(-c2cnc(N3CCC(CO)CC3)nc2OC2CN(c3ccc4ccccc4n3)C2)cn1`, for which the IC50 was 0.2 nM.

Molecule `O=C(c1nc2ccccc2[nH]1)N1CC(Oc2nc3ccccc3nc2C2CCOCC2)C1` came in with an IC50 of 786 nM.

`COc1ncccc1-c1nccnc1OC1CCN(c2ccc3ccccc3n2)CC1` had an IC50 of 118 nM.

On to `COc1cccc(-c2nccnc2OC2CN(c3ncc4ccccc4n3)C2)c1`, for which half-maximal inhibition (IC50) was put at 148 nM.

`CC(=O)N1CCC(c2nccnc2OC2CCN(c3ccc(C)cn3)CC2)CC1` had a half-inhibitory concentration (IC50) of 1620 nM.

`CN(C)C(=O)c1ccc(-c2nccnc2OC2CN(c3ccc4ccccc4n3)C2)cc1`: the IC50 was determined as 15 nM.

For the molecule `c1ccc2nc(N3CC(Oc4nccnc4-c4ccc(OCC5CC5)nc4)C3)ccc2c1`, the IC50 is 50.2 nM.

With `CC(=O)N1CC=C(c2nccnc2OC2CN(C(=O)c3nc4ccccc4[nH]3)C2)CC1`, the midpoint of inhibition, the IC50, lay at 10.4 nM.

`Cc1cc(-c2nccnc2O[C@@H]2CCN(c3ccc4ccccc4n3)C2)ccn1` yielded an IC50 of 255 nM.

Turning to `OCC1CCN(c2nccnc2OC2CN(c3cnc4ccccc4n3)C2)CC1`, the IC50 is 37.8 nM.

`CC(=O)N1CCC(c2nccnc2OC2CCN(c3ccc4ccccc4n3)CC2)CC1` had an IC50 of 1640 nM.

In turn, `Fc1ccc(N2CCC(Oc3ncccc3C3CCOCC3)CC2)nc1` registered an IC50 of 2960 nM.

As for `c1ccc2nc(N3CCC(Oc4nccnc4C4CCOCC4)CC3)ccc2c1`, the IC50 came out at 69.3 nM.

For the molecule `c1ccc2c(N3CCC(Oc4nccnc4C4CCOCC4)CC3)nccc2c1`, the midpoint of inhibition, the IC50, lay at 2810 nM.

`CC(=O)N1CC=C(c2cccnc2OC2CN(c3nc4ccccc4s3)C2)CC1`: the IC50 was 346 nM.

In turn, `c1ccc2nc(N3CC(Oc4nccnc4N4CCC5(CC4)COC5)C3)ccc2c1` yielded an IC50 of 43.6 nM.

Molecule `C1=C(c2nccnc2OC2CN(c3ccc4ccccc4n3)C2)CCOC1` came in with an IC50 of 14.9 nM.

In the case of `CC1CCN(c2ncc(Br)c(OC3CN(c4ccc5ccccc5n4)C3)n2)CC1`, the IC50 came out at 358 nM.

Regarding `CC1CCN(c2nccnc2OC2CN(c3ccc4ccccc4n3)C2)CC1`, the IC50 came out at 124 nM.

Molecule `Cc1cccnc1N1CCC(Oc2ncccc2C2CCOCC2)CC1` displayed an IC50 of 568 nM.

For the molecule `CC(=O)N1CCN(c2nccnc2OC2CN(C(=O)c3nc4ccccc4[nH]3)C2)CC1`, the IC50 is 637 nM.

Molecule `c1ccc2[nH]c(N3CC[C@H](Oc4nccnc4C4CCOCC4)C3)nc2c1` displayed an IC50 of 3930 nM.

`COc1ccccc1-c1nccnc1OC1CN(c2ccc3ccccc3n2)C1` showed an IC50 of 150 nM.

`Cc1ccc2nc(N3CCC(Oc4ncccc4C4CCOCC4)CC3)ccc2c1`: the IC50 came out at 472 nM.

Consider `CC(=O)N1CCC(c2nccnc2OC2CN(c3ccc4ccccc4n3)C2)CC1`, for which half-maximal inhibition (IC50) was put at 8.39 nM.

With `COc1ncccc1-c1nc2ccccc2nc1OC1CN(c2ccc3ccccc3n2)C1`, the IC50 was 5.5 nM.

In the case of `c1ccc2nc(N3CCC(Oc4nccnc4N4CCCC4)CC3)ccc2c1`, the IC50 stood at 286 nM.

`Cc1cccc(-c2nc3ccccc3nc2OC2CN(c3ccc4ccccc4n3)C2)c1` came in with an IC50 of 53.5 nM.

As to `CN1CCN(c2nccnc2OC2CN(c3ccc4ccccc4n3)C2)CC1=O`, the IC50 was determined as 33.9 nM.

`CC(=O)N1CC=C(c2nccnc2OC2CN(C(=O)OCc3ccccc3)C2)CC1`: the IC50 turned out to be 582 nM.

`Cc1ccnc(C(=O)N2CCC(Oc3ncccc3C3CCOCC3)CC2)c1` yielded an IC50 of 118 nM.

For the molecule `Cc1cnccc1-c1nccnc1OC1CCN(c2ccc3ccccc3n2)CC1`, the IC50 came to 34.7 nM.

As to `OC1CCN(c2ncc(Br)c(OC3CN(c4ccc5ccccc5n4)C3)n2)CC1`, the midpoint of inhibition, the IC50, lay at 73.7 nM.

`Cc1cccc(C(=O)N2CCC(Oc3ncccc3C3CCOCC3)CC2)n1` displayed an IC50 of 1180 nM.
